{"source": "patent US11666561B2", "about": "“Compounds for use in regulating follicle maturation” (AARHUS UNIVERSITET, priority 2017, dated 2023)", "tested_on": "primordial-to-primary follicle transition", "test": "In vitro organ culture of mouse ovaries with compound, H&E histology and counting of primordial, primary and secondary follicles", "procedure": "Ovaries obtained from mice were washed twice with culture medium. Antagonists or agonists to be tested were dissolved in suitable solvents and added to the medium. As a control medium comprising solvent without the antagonist or agonist was used. One of the ovaries was cultured in a control medium and another was cultured with the antagonist or agonist. The tested antagonists or agonists and their concentrations are outlined in table 2.\nOvaries were incubated with antagonist at 37° C. and 5% CO2 for 24 and 96 hours, respectively (see table 3).\nCultures ovaries were fixed, embedded in paraffin and sliced microscopy. The sectioned ovaries were stained with hematoxylin and eosin (H&E) to visualize the morphology of the ovary by microscopy.\nThe number of primordial, primary and secondary follicles was determined, and it was determined whether the antagonist or agonist was capable of regulating folliculogenesis.\nC57BL/6j×CBA F1 hybrid mice (Janvier Labs, France) were housed and bred in the animal facilities at Department of Biomedicine, Aarhus University. Animals were housed in a 12:12 h controlled light-dark environment and were provided with food and water ad libitum. 7-day-old female pups were used for the study.\nPups were sacrificed and ovaries were excised. Using a stereomicroscope MZ75 (Leica Microsystems, Germany), excess tissue was removed. During the dissection, ovaries were kept at 37° C. in culture medium: aMEM (Thermo Fisher) supplemented with 10% FBS (Thermo Fisher), 100 mIU/mL of FSH (Sigma-Aldrich), 100 IU/mL penicillin (Thermo Fisher), 100 μg/mL streptomycin (Thermo Fisher) and 1% Insulin-Transferrin-Selenium (Thermo Fisher). Isolated ovaries were transferred into well inserts (PET membrane ThinCert, 0.4 μm-pore size; Greiner bio-one) in 24-well plates (Tissue culture treated, cell culture plates; Costar). 200-300 μL of culture medium was added to the well below the insert and up to two ovaries were placed on the membrane of each insert. The culture medium was supplemented with different concentrations of the tested compounds; bpV(HOpic) (Sigma-Aldrich), Temsirolimus (Sigma-Aldrich), Ketotifen (Sigma-Aldrich), 3PO (Sigma-Aldrich), Dorsomorphin (Sigma-Aldrich), AICAR (Sigma-Aldrich), NCG (Sigma-Aldrich), and Dyphylline (Cayman Chemical). Up to six wells in the 24-well plate were used for inserts. Sterile dH2O was added to the rest of the wells to ensure humidity and reduce evaporation. The ovaries were cultured at 37° C., 5% CO2 for four days. 150 μL of medium was replaced every other day with fresh culture medium.\nOvaries kept in organ culture for four days were fixed for 24 hours in 4% paraformaldehyde solution at 4° C. After fixation, ovaries were dehydrated in ethanol series using 70%, 96% and 99.9% ethanol. Xylene was used as clearing agent before the ovaries were infiltrated in paraffin wax. 5 μm-sections of samples in paraffin were cut using a microtome (Cut 6062, SLEE medical, Germany). Paraffin sections were mounted on glass slides, paraffin was melted at 60° C., and the samples were stained with hematoxylin and eosin (using standard protocols).\nThe samples were deparaffinized by incubating in xylene for 2×15 min. and subsequently rehydrated in series of ethanol; 3×2 min. in 99.9% ethanol, 2 min. in 96% ethanol, and 2 min. in 70% ethanol. The samples were then rinsed in dH2O, stained in hematoxylin for 40 sec., rinsed in dH2O for 5 min., and stained in eosin for 46 sec. The samples were dehydrated in ethanol: 2×2 min. in 96% ethanol, 2×2 min in 99.9% ethanol, and finally cleared up in xylene for at least 30 min before mounting the samples using Eukitt mounting medium (Sigma-Aldrich) and cover glass.\nThe number of follicles at each developmental stage was counted using an inverted research microscope (DM14000B, Leica Microsystems, Germany). The follicles of every 3rd to 4th section of each ovary were counted and the distribution of follicles in the different stages in percentage was determined.", "note": "Entries after “also recorded” stand apart in the source; their conditions may differ.", "data": [{"molecule": "NC(=O)c1ncn([C@@H]2O[C@H](CO)[C@@H](O)[C@H]2O)c1N", "note": "[AICAR, 5-aminoimidazole-4-carboxamide-1β-D-ribofuranoside]", "values": [{"measurement": "follicles (stage not given; activation of primordial follicles inhibited)", "setting": "0.5 mM AICAR (n=1), data not shown", "result": "83.83±3.06", "unit": "%"}, {"measurement": "primary follicles", "setting": "1 mM AICAR, four days", "result": "10.82±4.98", "unit": "%"}, {"measurement": "primordial follicles", "setting": "1 mM AICAR, four days", "result": "86.02±5.84", "unit": "%"}, {"measurement": "secondary follicles", "setting": "1 mM AICAR, four days", "result": "3.0±3.09", "unit": "%"}, {"measurement": "health of growing follicles in treated ovaries", "setting": "AICAR 0.1-1 mM, four days", "result": "growing follicles within the ovary tended to appear unhealthy; also recorded: too harsh for the growing follicles"}, {"measurement": "Effect", "setting": "Table 1, effect with a figure cited", "result": "promotes"}, {"measurement": "Effect", "setting": "Table 2, effect with a figure cited", "result": "promotes"}, {"measurement": "effect on primordial-to-primary follicle transition / primordial follicle activation", "setting": "in vitro cultured mouse ovaries, concentration not given", "result": "suppress the primordial-to-primary follicle transition"}]}, {"molecule": "MM-141: tetravalent bispecific antibody targeting IGF-1 receptor and ERBB3 (antibody, chains of the INN, looked up, V domains shown) VH: EVQLLQSGGGLVQPGGSLRLSCAASGFMFSRYPMHWVRQAPGKGLEWVGSISGSGGATPYADSVKGRFTISRDNSKNTLYLQMNSLRAEDTAVYYCAKDFYQILTGNAFDYWGQGTTVTVSS VL: DIQMTQSPSSLSASLGDRVTITCRASQGISSYLAWYQQKPGKAPKLLIYAKSTLQSGVPSRFSGSGSGTDFTLTISSLQPEDSATYYCQQYWTFPLTFGGGTKVEIK VH2: QVQLVQSGGGLVQPGGSLRLSCAASGFTFDDYAMHWVRQAPGKGLEWVAGISWDSGSTGYADSVKGRFTISRDNAKNSLYLQMNSLRAEDTALYYCARDLGAYQWVEGFDYWGQGTLVTVSS VL2: SYELTQDPAVSVALGQTVRITCQGDSLRSYYASWYQQKPGQAPVLVIYGKNNRPSGIPDRFSGSTSGNSASLTITGAQAEDEADYYCNSRDSPGNQWVFGGGTKVTVL", "values": [{"measurement": "Effect", "setting": "Table 1, marked (ongoing)", "result": "promotes"}, {"measurement": "Effect", "setting": "Table 2, marked (ongoing)", "result": "promotes"}]}, {"molecule": "BI 836845: humanised IgG1 monoclonal antibody that binds to and neutralises IGF-1 and IGF-2 (antibody, chains of the INN, looked up, V domains shown) VH: QVELVESGGGLVQPGGSLRLSCAASGFTFTSYWMSWVRQAPGKGLELVSSITSYGSFTYYADSVKGRFTISRDNSKNTLYLQMNSLRAEDTAVYYCARNMYTHFDSWGQGTLVTVSS VL: DIVLTQPPSVSGAPGQRVTISCSGSSSNIGSNSVSWYQQLPGTAPKLLIYDNSKRPSGVPDRFSGSKSGTSASLAITGLQSEDEADYYCQSRDTYGYYWVFGGGTKLTVL", "values": [{"measurement": "Effect", "setting": "Table 1, marked (ongoing)", "result": "promotes"}, {"measurement": "Effect", "setting": "Table 2, marked (ongoing)", "result": "promotes"}]}]}
